Experimental data published in patent US20140142613A1, “INSTRUMENT FOR CAPTURING FREE THROMBI” (Toray Industries, Inc., priority 2011, published 2014).

Tested on: citrated blood
Assay: Measurement of whole blood clotting time (Sonoclot, ACT ONSET value)
Set-up: species or system human
Method: In a cuvette (NON-ACTIVATED CLOTTING TEST KIT), 18 μL of physiological saline was placed, and 14.8 μL of Calcicol was added thereto, followed by further adding 342 μL of the citrated blood to the resulting mixture. The mixture was then subjected to measurement using a Sonoclot coagulation & Platelet Function Analyzer (IMI Corporation), and the obtained ACT ONSET value was regarded as the whole blood clotting time.

## CC1CNc2c(cccc2S(=O)(=O)N[C@@H](CCCNC(=N)N)C(=O)N2CC[C@@H](C)C[C@@H]2C(=O)O)C1 (mixture of isomers) [argatroban, (2R,4R)-4-methyl-1-((2S)-2-{[(3RS)-3-methyl-1,2,3,4-tetrahydroquinolin-8-yl]sulfonyl}amino-5-guanidinopentanoyl)piperidine-2-carboxylic acid]
2 μM argatroban solution instead of physiological saline
  whole blood clotting time: 531 s
10 μM argatroban solution instead of physiological saline
  whole blood clotting time: 746 s
20 μM argatroban solution instead of physiological saline
  whole blood clotting time: 849 s
